From ChEMBL document CHEMBL1201862, “PubChem BioAssay data set” (2004)
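These data come from cells grown in 96-well plates and exposed to compound for 48 hours at five concentrations. The concentration for 50% growth inhibition is given as GI50.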 Calls of active or inactive are those of the source. Rule as the data show it: active = GI50 up to about 1.1 µM and inactive = higher.

Experiments:
Test in all cases: growth of human tumour cells (NCI), 48 h
SW-620 = system: SW-620
SK-MEL-2 = system: SK-MEL-2
786-0 = system: 786-0
HL-60 = system: HL-60
U-251 = system: U-251
M14 = system: M14
PC-3 = system: PC-3
SF-268 = system: SF-268
SF-539 = system: SF-539
A549 = system: A549
UO-31 = system: UO-31
RXF 393 = system: RXF 393
CAKI-1 = system: CAKI-1
MOLT-4 = system: MOLT-4
T47D = system: T47D
DU-145 = system: DU-145
K562 = system: K562
SN12C = system: SN12C
NCI-H460 = system: NCI-H460
KM12 = system: KM12

Measured: GI50

NC(=O)c1sc2nc3ccccc3n2c1N
inactive: SW-620 > 100 µM | SK-MEL-2 30.2 µM | 786-0 40 µM | HL-60 > 100 µM | U-251 28.2 µM | M14 > 100 µM | PC-3 > 100 µM | SF-268 47.2 µM | SF-539 21.5 µM | A549 > 100 µM | UO-31 > 100 µM | RXF 393 21.1 µM | CAKI-1 92.7 µM | MOLT-4 > 100 µM | T47D > 100 µM | DU-145 84.9 µM

CC(=O)OC1(C)C(=O)OC/C2=C/CN(C)CCC(OC(=O)C(O)(C(C)Cl)CC1C)C2=O.c1ccccc1 (centres undefined)
inactive: K562 > 100 µM | SW-620 > 100 µM | SK-MEL-2 > 100 µM | 786-0 > 100 µM | HL-60 > 100 µM | U-251 > 100 µM | M14 > 100 µM | PC-3 > 100 µM | SF-268 > 100 µM | SF-539 > 100 µM | SN12C > 100 µM | NCI-H460 > 100 µM | A549 > 100 µM | UO-31 > 100 µM | KM12 > 100 µM | CAKI-1 > 100 µM | MOLT-4 > 100 µM | T47D > 100 µM | DU-145 > 100 µM

CCOC(=O)c1ccc(Nc2nc3ccc(C(F)(F)F)cc3nc2-c2ccccc2)cc1
inactive: K562 > 100 µM | SW-620 > 100 µM | 786-0 > 100 µM | HL-60 61.1 µM | U-251 53 µM | M14 > 100 µM | PC-3 38 µM | SF-268 > 100 µM | SF-539 > 100 µM | SN12C 74.8 µM | NCI-H460 > 100 µM | A549 > 100 µM | UO-31 > 100 µM | KM12 > 100 µM | RXF 393 97.3 µM | CAKI-1 > 100 µM | MOLT-4 38.1 µM | T47D 20.5 µM | DU-145 > 100 µM

CSc1[nH]cnc1C(N)=S
inactive: SW-620 > 100 µM | SK-MEL-2 > 100 µM | 786-0 > 100 µM | HL-60 > 100 µM | U-251 > 100 µM | M14 > 100 µM | PC-3 > 100 µM | SF-268 > 100 µM | SF-539 > 100 µM | A549 > 100 µM | UO-31 > 100 µM | KM12 > 100 µM | RXF 393 > 100 µM | CAKI-1 > 100 µM | MOLT-4 > 100 µM | T47D > 100 µM | DU-145 > 100 µM

CCOC(=O)c1cc(C(O)P2(=O)N(CC(C)(C)C)[C@@H]3CCCC[C@H]3N2CC(C)(C)C)cn1C(=O)OC(C)(C)C (some centres undefined)
inactive: K562 20.1 µM | SW-620 16.2 µM | SK-MEL-2 17.7 µM | 786-0 15.6 µM | HL-60 24.5 µM | U-251 15.9 µM | M14 16.2 µM | PC-3 15.9 µM | SF-268 15.8 µM | SN12C 13.3 µM | A549 15.7 µM | UO-31 15.3 µM | KM12 14.8 µM | RXF 393 12 µM | CAKI-1 14.8 µM | MOLT-4 12.8 µM | T47D 15.1 µM | DU-145 16.6 µM

O=C(O)CC[P+](c1ccccc1)(c1ccccc1)c1ccccc1
inactive: K562 11.7 µM | SW-620 > 100 µM | SK-MEL-2 21.6 µM | 786-0 30.6 µM | HL-60 11.5 µM | U-251 23.2 µM | M14 23.1 µM | PC-3 37.4 µM | SF-268 31.3 µM | SN12C 16.9 µM | A549 45.4 µM | UO-31 > 100 µM | KM12 29 µM | RXF 393 > 100 µM | CAKI-1 > 100 µM | MOLT-4 49.1 µM | T47D 7.94 µM | DU-145 48.2 µM

COc1cc2c(cc1OCCCCN1C(=O)c3cccc4cccc(c34)C1=O)N=C[C@@H]1CCCN1C2=O
inactive: K562 4.15 µM | SW-620 4.92 µM | SK-MEL-2 3.47 µM | 786-0 2.64 µM | U-251 3.24 µM | M14 5.56 µM | PC-3 5.27 µM | SF-268 4.92 µM | SF-539 2.55 µM | SN12C 3.53 µM | NCI-H460 3.96 µM | A549 5.68 µM | UO-31 1.68 µM | KM12 3.57 µM | RXF 393 2.09 µM | CAKI-1 2.58 µM | MOLT-4 3.25 µM | T47D 7.93 µM | DU-145 4.01 µM

CN(C)Cc1cc(C(C)(C)C)cc(CNC2CCCCC2)c1O
inactive: K562 22.1 µM | SW-620 33.5 µM | SK-MEL-2 > 100 µM | 786-0 27.9 µM | U-251 45 µM | M14 16.1 µM | PC-3 24.6 µM | SF-268 18.7 µM | SF-539 17.7 µM | SN12C 35.6 µM | NCI-H460 20.4 µM | A549 29.6 µM | UO-31 15.6 µM | KM12 30.4 µM | RXF 393 29.2 µM | CAKI-1 44.6 µM | MOLT-4 12.3 µM | T47D 63.5 µM | DU-145 40.9 µM

CCO[C@@H]1CCC([S+]([O-])c2ccc(C)cc2)=CO1 (some centres undefined)
inactive: K562 > 100 µM | SW-620 > 100 µM | SK-MEL-2 > 100 µM | 786-0 > 100 µM | HL-60 69.7 µM | U-251 > 100 µM | PC-3 > 100 µM | SF-268 > 100 µM | SN12C > 100 µM | NCI-H460 > 100 µM | UO-31 > 100 µM | KM12 34.2 µM | RXF 393 > 100 µM | CAKI-1 > 100 µM | MOLT-4 52.1 µM | T47D > 100 µM | DU-145 > 100 µM

CN(C)CCNc1ccc(NCCN(C)C)c2c1C(=O)c1ncsc1C2=O
inactive: K562 13.6 µM | SW-620 9.82 µM | SK-MEL-2 20.2 µM | 786-0 9.1 µM | U-251 14 µM | M14 18.2 µM | PC-3 15.3 µM | SF-268 15.4 µM | SF-539 12.9 µM | SN12C 10.9 µM | A549 11.9 µM | UO-31 15.2 µM | KM12 11.4 µM | RXF 393 18.6 µM | CAKI-1 16.9 µM | MOLT-4 1.94 µM | T47D > 100 µM | DU-145 13.2 µM

O=c1c2cc(Cl)cc(Cl)c2oc2nc3n(c(=O)c12)CCCS3
inactive: K562 76 µM | SW-620 > 100 µM | SK-MEL-2 > 100 µM | 786-0 > 100 µM | U-251 > 100 µM | M14 > 100 µM | PC-3 > 100 µM | SF-268 > 100 µM | SF-539 > 100 µM | SN12C > 100 µM | NCI-H460 > 100 µM | A549 > 100 µM | UO-31 18.8 µM | KM12 > 100 µM | RXF 393 > 100 µM | CAKI-1 > 100 µM | MOLT-4 57.8 µM | T47D 57.1 µM | DU-145 > 100 µM

[O-][S+](c1ccccc1)C1CC2CC3(CCC21O)OCCO3 (centres undefined)
inactive: K562 > 100 µM | SW-620 > 100 µM | SK-MEL-2 > 100 µM | 786-0 > 100 µM | HL-60 > 100 µM | U-251 > 100 µM | M14 > 100 µM | PC-3 > 100 µM | SF-268 > 100 µM | NCI-H460 > 100 µM | A549 > 100 µM | UO-31 > 100 µM | KM12 > 100 µM | RXF 393 > 100 µM | CAKI-1 > 100 µM | MOLT-4 > 100 µM | T47D > 100 µM | DU-145 > 100 µM

Cc1cn(CC2=NC3CCCCC3N2)c(=O)[nH]c1=O (centres undefined)
inactive: K562 > 100 µM | SW-620 > 100 µM | SK-MEL-2 > 100 µM | 786-0 > 100 µM | HL-60 > 100 µM | U-251 > 100 µM | M14 > 100 µM | PC-3 > 100 µM | SF-268 > 100 µM | SN12C > 100 µM | NCI-H460 > 100 µM | A549 > 100 µM | UO-31 > 100 µM | RXF 393 > 100 µM | MOLT-4 > 100 µM | T47D > 100 µM | DU-145 > 100 µM

CN1C(=O)C(=Cc2ccc(Br)cc2)C(=O)N(C)C1=O
inactive: K562 5.45 µM | SW-620 > 100 µM | SK-MEL-2 > 100 µM | 786-0 > 100 µM | U-251 > 100 µM | M14 > 100 µM | PC-3 > 100 µM | SF-268 > 100 µM | NCI-H460 > 100 µM | A549 > 100 µM | UO-31 > 100 µM | KM12 > 100 µM | RXF 393 40.8 µM | CAKI-1 > 100 µM | MOLT-4 14.1 µM | T47D > 100 µM | DU-145 > 100 µM

COc1ccc(-c2oc3ccc(C)cc3c(=O)c2O)cc1
inactive: SW-620 > 100 µM | SK-MEL-2 > 100 µM | 786-0 44.3 µM | HL-60 58.7 µM | U-251 28.6 µM | M14 > 100 µM | PC-3 > 100 µM | SF-268 45 µM | SF-539 43.4 µM | SN12C > 100 µM | A549 > 100 µM | UO-31 > 100 µM | KM12 > 100 µM | RXF 393 > 100 µM | CAKI-1 > 100 µM | MOLT-4 58.6 µM | T47D > 100 µM | DU-145 > 100 µM
